The results in this text go back to US20200338112A1, “METHODS AND MATERIALS FOR TREATING CANCER” (Mayo Foundation for Medical Education and Research, priority 2018, published 2020).

The subject of experiment [1] is NBS1 protein level in MDA-MB-231 cells. Put plainly: Western blot of NBS1 protein level after MG132 treatment. Type of experiment: cell-based. The settings on record: MG132 10 μM for six hours; PD-L1 depleted MDA-MB-231 cells; FIG. 3c. As for the experimental part:
FIGS. 3a and 3b contain western blot analyses of BRCA1, NBS1, RAD50, MRE11, and PD-L1 in HCT116 and MDA-MB-231 cells, respectively, that were infected with lentiviral control shRNA or two different shRNAs targeting PD-L1. GAPDH was used as a loading control. FIG. 3c contains a western blot of NBS1 protein levels in MDA-MB-231 cells infected with lentivirus control shRNA or two different shRNAs targeting PD-L1 were treated with DMSO (control) or MG132 (10 μM) for six hours before proteins were harvested. GAPDH and p53 were used as loading and positive control, respectively. […] GAPDH was used for normalization. FIGS. 3e, 3f, and 3g assess HCT116 cells treated with the transcription inhibitor actinomycin D (5 μg/mL). NBS1 mRNA levels were quantified using RT-PCR. Knockdown of PD-L1 in HCT116 decreased the half-life of NBS1 and BRCA1 mRNA, while restoring PD-L1 in the knockdown cells rescued the phenotype (±s.e.m., n=3). GAPDH was used for normalization. […] The change of NBS1 and BRCA1 mRNA level was not due to transcription, since the transcription of BRCA1 was not changed, while the transcription of NBS1 was even increased after PD-L1 was knocked down (±s.e.m., n=3). GAPDH was used for normalization. FIG. 3i contains representative pictures of the subcellular localization of PD-L1. The immunofluorescence was performed in HCT116 cells. […]
(In general: In western blotting, separated proteins are transferred to a membrane and probed.)

The test system of experiment [2] is cells. Put plainly: Colony formation of cells pretreated with durvalumab, then IR. Type of experiment: cell-based. The settings on record: durvalumab 10 μg/mL, 24 hours before IR, FIG. 1f. As for the experimental part:
FIG. 1a contains colony formation experiments of HCT116 cells under either ionizing radiation (IR) (0, 2, 4 Gy) or cisplatin (0, 0.5, 1 and 2 μM) treatment. […] FIG. 1b contains knockdown and overexpression efficiency validation of PD-L1 in HCT116 using western blot; glyceraldehyde 3-phosphate dehydrogenase (GAPDH) was used as a loading control. […] The formation of rH2AX foci was sustained in PD-L1 depletion group compared to control group, data is represented as mean±s.e.m for each view. FIG. 1e contains an assessment of wild-type (+/+, n=16), PD-L1 heterozygous (+/−, n=24), and PD-L1 knockout (−/−, n=16) BALB/C mice that were exposed to whole body irradiation (7 Gy). Comparisons between groups were made using the Log-rank test. […] Result were based upon colony formation (±s.e.m., n=3).

Entries after “also recorded” stand apart in the source; their conditions may differ. Where a SMILES comes first, the peptide text is derived from it. The star is where a group is joined. Cbz = O=C(OCc1ccccc1)*

With `CC(C)C[C@@H](C=O)NC(=O)[C@H](CC(C)C)NC(=O)[C@H](CC(C)C)NC(=O)OCc1ccccc1` [MG132] (Cbz-Leu-Leu-Leu-aldehyde), in experiment [1], the “recovery of NBS1 protein level in PD-L1 depleted cells” value is reported as “did not recover”.
As to durvalumab, the “sensitization of cells to IR (DNA damage stimulation)” value in experiment [2] was “did not sensitize cells to DNA damage stimulation; also recorded: did not sensitize cells to IR”.
